From patent US12262710B2, “Fungicidal compounds” (SYNGENTA CROP PROTECTION AG, priority 2019, dated 2025)

How the values were obtained:
[1] = system: Alternaria solani; test: Alternaria solani (early blight of tomatoes), tomato leaf disks; format: in vivo; conditions: foliar, inoculated 2 days after application, compared to untreated control
Description: Alternaria solani (Early Blight of Tomatoes) Tomato leaf disks are placed on agar in multiwell plates (24-well format) and sprayed with the formulated test compound diluted in water. The leaf disks are inoculated with a spore suspension of the fungus 2 days after application. The inoculated leaf disks are incubated at 23° C./21° C.

[2] = system: Glomerella lagenarium; test: Glomerella lagenarium syn. Colletotrichum lagenarium (anthracnose of cucurbits), liquid culture growth inhibition; format: cell-based; conditions: Colletotrichum orbiculare, nutrient broth (PDB), 72 hrs, photometric at 620 nm, compared to untreated control
Outline: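 Conidia mixed into potato dextrose broth and added to compound in DMSO in 96-well format. Incubated at 24 °C; growth inhibition measured photometrically at 620 nm after 72 hrs.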

[3] = system: Erysiphe graminis f. sp. tritici; test: Erysiphe graminis f. sp. tritici (wheat powdery mildew), wheat leaf segments, preventive; format: in vivo; conditions: Blumeria graminis, foliar, 168 h, 7 dpi, compared to untreated control
Description: (§1) Wheat leaf segments are placed on agar in multiwell plates (24-well format) and sprayed with test solutions. After drying, the leaf disks are inoculated with spores of the fungus. After appropriate incubation the activity of a compound is assessed 7 dpi (days post inoculation) as preventive fungicidal activity.

[4] = system: Monographella nivalis; test: Monographella nivalis syn. Microdochium nivale (snow mould, foot rot of cereals), liquid culture growth inhibition; format: cell-based; conditions: nutrient broth (PDB), 72 hrs, photometric at 620 nm, compared to untreated control
Outline: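 Cryostored conidia suspended in potato dextrose broth and added to test compounds in DMSO. Growth inhibition read photometrically at 620 nm after 72 h incubation at 24 °C.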

[5] = system: Mycosphaerella arachidis; test: Mycosphaerella arachidis syn. Cercospora arachidicola (brown leaf spot of peanut), liquid culture growth inhibition; format: cell-based; conditions: nutrient broth (PDB), approximately 5-6 days, photometric at 620 nm, compared to untreated control
Description: Conidia of the fungus from cryogenic storage were directly mixed into nutrient broth (PDB potato dextrose broth). A DMSO solution of the test compounds was placed into a microtiter plate (96-well format) and the nutrient broth containing the fungal spores was added to it. The test plates were incubated at 24° C. and the inhibition of growth was determined photometrically after approximately 5-6 […] at 620 nm.

[6] = system: Phakopsora pachyrhizi; test: Phakopsora pachyrhizi (soybean rust), soybean leaf disks, preventive; format: in vivo; conditions: foliar, 288 h, approx. 12 dpi, compared to untreated control
Description: as §1, with “Soybean” for “Wheat”, “disks” for “segments”, “a spore suspension” for “spores”, “approx. 12” for “7”, “after” for “post”

[7] = system: Phytophthora infestans; test: whole plant or invertebrate; format: in vivo; conditions: in Solanum lycopersicum, foliar, 96 h, read-out: control of Phytophthora infestans
[8] = system: Plasmopara viticola; test: Plasmopara viticola (downy mildew of grapevine), grape vine leaf disks, preventive; format: in vivo; conditions: foliar, 168 h, 7 dpi, compared to untreated control
Description: as §1, with “Grape vine” for “Wheat”, “disks” for “segments”, “a spore suspension” for “spores”, “after” for “post”

[9] = system: Puccinia recondita f. sp. tritici; test: Puccinia recondita (brown rust), curative, wheat leaf segments; format: in vivo; conditions: foliar, 192 h, sprayed 1 day after inoculation, 8 dpi, compared to untreated control
Description: (§2) Wheat leaf segments are placed on agar in multiwell plates (24-well format). The leaf segments are inoculated with a spore suspension of the fungus and sprayed with test solutions 1 day after inoculation. After appropriate incubation the activity of a compound is assessed 8 dpi (days after inoculation) as curative fungicidal activity.

[10] = system: Puccinia recondita f. sp. tritici; test: Puccinia recondita (brown rust), preventative, wheat leaf segments; format: in vivo; conditions: foliar, 192 h, 8 dpi, compared to untreated control
Description: as §1, with “segments” for “disks”, “a spore suspension” for “spores”, “8” for “7”, “after” for “post”, “preventative” for “preventive”

[11] = system: Pyricularia oryzae; test: whole plant or invertebrate; format: in vivo; conditions: foliar, 120 h, read-out: control of Pyricularia oryzae
[12] = system: Puccinia recondita; test: Example C: comparative activity against Puccinia recondita (brown rust), curative, wheat leaf segments; format: in vivo; conditions: 8 dpi
Description: as §2, with “Method; Wheat” for “Wheat”, “activity. The data are presented as the percentage of disease control of each compound for the biological tests and testing rates described below in table H.” for “activity.”

[13] = system: Phakopsora pachyrhizi; test: Example D: comparative activity against Phakopsora pachyrhizi (soybean rust), soybean plants sprayed, leaf disks cut from treated plants; format: in vivo; conditions: 0.1% OCHIMA, leaf disks cut one day after application, approx. 12 dpi
Description: Method: Soybean plants are sprayed in a spray chamber with formulated DMSO compound solutions which are diluted to the appropriate concentration with 0.1% […] (adjuvant comprising polyethoxylated sorbitol hexaoleate and tris(2-ethylhexyl) phosphate) just before spraying. Leaf disks are cut from treated plants and placed on agar into 24-well plates one day after application. After, the leaf disks are inoculated with a spore suspension of the fungus. After appropriate incubation the activity of a compound is assessed approx. 12 dpi (days after inoculation) as preventive fungicidal activity. The data are presented as the percentage of disease control of each compound for the biological tests and testing rates described below in Table 1.

[14] = system: Phakopsora pachyrhizi; test: Example E: comparative activity against Phakopsora pachyrhizi (soybean rust), soybean leaf disks sprayed; format: in vivo; conditions: 0.025% Tween20, approx. 12 dpi
Description: Method: Compounds to be tested are prepared as DMSO solutions which are diluted to the appropriate concentration with 0.025% Tween20 just before spraying. Soybean leaf disks are placed on agar in multiwell plates (24-well format) and sprayed with test solutions. After drying, the leaf disks are inoculated with a spore suspension of the fungus. After appropriate incubation the activity of a compound is assessed approx. 12 dpi (days after inoculation) as preventive fungicidal activity. The data are presented as the percentage of disease control of each compound for the biological tests and testing rates described below in Table J.

## CO/C=C(\Oc1cc(C2CCCCC2)ccc1C)C(=O)OC [E.15, methyl (Z)-2-(5-cyclohexyl-2-methyl-phenoxy)-3-methoxy-prop-2-enoate]
[1]
  pest or weed control at 200 ppm: ≥ 80%
[2]
  inhibition of growth at 20 ppm: ≥ 80%
[3]
  pest or weed control at 200 ppm: ≥ 80%
[4]
  inhibition of growth at 20 ppm: ≥ 80%
[5]
  inhibition of growth at 20 ppm: ≥ 80%
[6]
  pest or weed control at 60 ppm: ≥ 70%
[7]
  pest or weed control at 200 ppm: ≥ 80%
[8]
  pest or weed control at 200 ppm: ≥ 80%
[9]
  pest or weed control at 200 ppm: ≥ 80%
[10]
  pest or weed control at 200 ppm: ≥ 80%
[11]
  pest or weed control at 200 ppm: ≥ 80%
[12]; 20 ppm
  control (%) Puccinia recondita (Brown rust), curative: 90%
[12]; 60 ppm
  control (%) Puccinia recondita (Brown rust), curative: 100%
[12]; 200 ppm
  control (%) Puccinia recondita (Brown rust), curative: 100%
[13]; 6 ppm
  control (%) Phakopsora pachyrhizi (Soybean rust): 0%
[13]; 20 ppm
  control (%) Phakopsora pachyrhizi (Soybean rust): 51%
[13]; 60 ppm
  control (%) Phakopsora pachyrhizi (Soybean rust): 97%
[13]; 200 ppm
  control (%) Phakopsora pachyrhizi (Soybean rust): 99%
[14]; 0.6 ppm
  control (%) Phakopsora pachyrhizi (Soybean rust): 10%
[14]; 2 ppm
  control (%) Phakopsora pachyrhizi (Soybean rust): 70%
[14]; 6 ppm
  control (%) Phakopsora pachyrhizi (Soybean rust): 95%
[14]; 20 ppm
  control (%) Phakopsora pachyrhizi (Soybean rust): 100%
[14]; 60 ppm
  control (%) Phakopsora pachyrhizi (Soybean rust): 100%
[14]; 200 ppm
  control (%) Phakopsora pachyrhizi (Soybean rust): 100%
